Reference: patent US6737383B1, “Herbicidal oxadiazolidines” (priority 1999, dated 2004)

How the values were obtained:
crabgrass = assay: Test B pre/postemergence crabgrass; assay type: in vivo, Digitaria sanguinalis
Outline: (§1)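 Test chemicals in a non-phytotoxic solvent mixture with surfactant were sprayed preemergence onto planted seeds and postemergence onto plants 2 to 18 cm tall (1- to 4-leaf stage). After twelve to sixteen days in a greenhouse, injury was visually rated against untreated controls from 0 (no effect) to 10 (complete control).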

wheat = assay: Test B pre/postemergence wheat; assay type: in vivo, Triticum aestivum
Outline: as §1

duck salad = assay: Test B flood test duck salad; assay type: in vivo, Heteranthera limosa
Outline: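 Plants were grown to the 2-leaf stage before treatment with test chemical, then held in a greenhouse for twelve to sixteen days. Injury was visually rated against untreated controls on a 0–10 scale, where 0 is no effect and 10 is complete control.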

giant foxtail = assay: Test B pre/postemergence giant foxtail; assay type: in vivo, Setaria faberii
Outline: as §1

[1] = Postemergence, Rate 250 g/ha, scale 0 to 10, 0 no effect, 10 complete control
[2] = Postemergence, Rate 1000 g/ha, scale 0 to 10 (0 no effect, 10 complete control)
[3] = Preemergence, Rate 125 g/ha, scale 0 to 10 (0 no effect, 10 complete control)
[4] = Preemergence, Rate 250 g/ha, scale of 0 to 10 where 0 is no effect and 10 is complete control
[5] = Preemergence, Rate 500 g/ha, scale 0 (no effect) to 10 (complete control)
[6] = Rate 125 g/ha, Postemergence, scale 0 to 10, 0 no effect, 10 complete control
[7] = Rate 500 g/ha, Postemergence, 0 to 10 scale (0 no effect, 10 complete control)
[8] = Rate 1000 g/ha, Preemergence, scale 0 to 10 (0 no effect, 10 complete control)
[9] = Rate 125 g/ha, Postemergence section (flood test species), scale 0 to 10, 0 no effect, 10 complete control
[10] = Rate 500 g/ha, Postemergence section of Table B, 0 to 10 scale (0 no effect, 10 complete control)
[11] = flood test, listed under Postemergence, Rate 250 g/ha, scale 0 to 10, 0 no effect, 10 complete control
[12] = Postemergence, Rate 62 g/ha, scale 0 to 10, 0 is no effect, 10 is complete control
[13] = Preemergence, Rate 62 g/ha, scale 0 to 10, 0 is no effect, 10 is complete control
[14] = Preemergence, Rate 31 g/ha, visual rating, scale 0 to 10 (0 no effect, 10 complete control)
[15] = Rate 31 g/ha, Postemergence, scale 0 to 10

Structure (SMILES): CCN(CC)C(=O)n1oc(=O)n(-c2ccc(OC)cc2)c1=O [Compound 1]
- Crabgrass plant response rating (crabgrass; [1]): 5
- Crabgrass plant response rating (crabgrass; [2]): 9
- Plant response rating, Crabgrass (crabgrass; [3]): 4
- Plant response rating, Crabgrass (crabgrass; [4]): 8
- Crabgrass plant response rating (crabgrass; [5]): 8
- Crabgrass plant response rating (crabgrass; [6]): 0
- Crabgrass plant response rating (crabgrass; [7]): 8
- Plant response rating, Crabgrass (crabgrass; [8]): 9
- Wheat plant response rating (wheat; [1]): 0
- Wheat plant response rating (wheat; [2]): 0
- Plant response rating, Wheat (wheat; [3]): 0
- Plant response rating, Wheat (wheat; [4]): 0
- Wheat plant response rating (wheat; [5]): 0
- Wheat plant response rating (wheat; [6]): 0
- Plant response rating, Wheat (wheat; [8]): 0
- Ducksalad plant response rating (duck salad; [2]): 0
- Ducksalad plant response rating (duck salad; [9]): 0
- Ducksalad plant response rating (duck salad; [10]): 0
- Ducksalad plant response rating (duck salad; [11]): 0
- Giant foxtail plant response rating (giant foxtail; [1]): 2
- Giant foxtail plant response rating (giant foxtail; [2]): 8
- Plant response rating, Giant foxtail (giant foxtail; [3]): 7
- Plant response rating, Giant foxtail (giant foxtail; [4]): 8
- Giant foxtail plant response rating (giant foxtail; [5]): 9
- Giant foxtail plant response rating (giant foxtail; [6]): 0
- Giant foxtail plant response rating (giant foxtail; [7]): 8
- Plant response rating, Giant foxtail (giant foxtail; [8]): 9

Structure (SMILES): COc1ccc(-n2c(=O)on(C(=O)N(C3=CCOCC3)C(C)C)c2=O)cc1 [Compound 6]
- Crabgrass plant response rating (crabgrass; [1]): 2
- Crabgrass plant response rating (crabgrass; [2]): 7
- Plant response rating, Crabgrass (crabgrass; [3]): 7
- Crabgrass plant response rating (crabgrass; [5]): 9
- Crabgrass plant response rating (crabgrass; [6]): 0
- Crabgrass plant response rating (crabgrass; [7]): 5
- Plant response rating, Crabgrass (crabgrass; [8]): 10
- Wheat plant response rating (wheat; [1]): 0
- Wheat plant response rating (wheat; [2]): 0
- Plant response rating, Wheat (wheat; [3]): 0
- Plant response rating, Wheat (wheat; [4]): 0
- Wheat plant response rating (wheat; [5]): 0
- Wheat plant response rating (wheat; [6]): 0
- Plant response rating, Wheat (wheat; [8]): 3
- Ducksalad plant response rating (duck salad; [2]): 0
- Ducksalad plant response rating (duck salad; [9]): 0
- Ducksalad plant response rating (duck salad; [10]): 0
- Ducksalad plant response rating (duck salad; [11]): 0
- Giant foxtail plant response rating (giant foxtail; [1]): 4
- Giant foxtail plant response rating (giant foxtail; [2]): 7
- Plant response rating, Giant foxtail (giant foxtail; [3]): 3
- Plant response rating, Giant foxtail (giant foxtail; [4]): 4
- Giant foxtail plant response rating (giant foxtail; [5]): 9
- Giant foxtail plant response rating (giant foxtail; [6]): 2
- Giant foxtail plant response rating (giant foxtail; [7]): 5
- Plant response rating, Giant foxtail (giant foxtail; [8]): 9

Structure (SMILES): CC(C)N(C(=O)n1oc(=O)n(-c2cc(Cl)cc(Cl)c2)c1=O)C1=CCOCC1 [Compound 9]
- Crabgrass plant response rating (crabgrass; [1]): 0
- Crabgrass plant response rating (crabgrass; [2]): 0
- Plant response rating, Crabgrass (crabgrass; [3]): 3
- Plant response rating, Crabgrass (crabgrass; [4]): 0
- Crabgrass plant response rating (crabgrass; [5]): 3
- Crabgrass plant response rating (crabgrass; [6]): 0
- Crabgrass plant response rating (crabgrass; [7]): 0
- Plant response rating, Crabgrass (crabgrass; [8]): 3
- Wheat plant response rating (wheat; [1]): 0
- Wheat plant response rating (wheat; [2]): 0
- Plant response rating, Wheat (wheat; [3]): 0
- Plant response rating, Wheat (wheat; [4]): 0
- Wheat plant response rating (wheat; [5]): 0
- Wheat plant response rating (wheat; [6]): 0
- Plant response rating, Wheat (wheat; [8]): 0
- Ducksalad plant response rating (duck salad; [2]): 0
- Ducksalad plant response rating (duck salad; [9]): 0
- Ducksalad plant response rating (duck salad; [10]): 0
- Ducksalad plant response rating (duck salad; [11]): 0
- Giant foxtail plant response rating (giant foxtail; [1]): 0
- Giant foxtail plant response rating (giant foxtail; [2]): 0
- Plant response rating, Giant foxtail (giant foxtail; [3]): 0
- Plant response rating, Giant foxtail (giant foxtail; [4]): 0
- Giant foxtail plant response rating (giant foxtail; [5]): 3
- Giant foxtail plant response rating (giant foxtail; [6]): 0
- Giant foxtail plant response rating (giant foxtail; [7]): 0
- Plant response rating, Giant foxtail (giant foxtail; [8]): 7

Structure (SMILES): Cc1ccccc1-n1c(=O)on(C(=O)N(C2=CCOCC2)C(C)C)c1=O [Compound 10]
- Crabgrass plant response rating (crabgrass; [12]): 3
- Crabgrass plant response rating (crabgrass; [1]): 9
- Plant response rating, Crabgrass (crabgrass; [13]): 2
- Plant response rating, Crabgrass (crabgrass; [3]): 7
- Crabgrass plant response rating (crabgrass; [5]): 7
- Crabgrass plant response rating (crabgrass; [6]): 6
- Crabgrass plant response rating (crabgrass; [7]): 9
- Wheat plant response rating (wheat; [12]): 0
- Wheat plant response rating (wheat; [1]): 0
- Plant response rating, Wheat (wheat; [13]): 0
- Plant response rating, Wheat (wheat; [3]): 0
- Plant response rating, Wheat (wheat; [4]): 0
- Wheat plant response rating (wheat; [5]): 0
- Wheat plant response rating (wheat; [6]): 0
- Ducksalad plant response rating (duck salad; [12]): 0
- Ducksalad plant response rating (duck salad; [9]): 0
- Ducksalad plant response rating (duck salad; [10]): 0
- Ducksalad plant response rating (duck salad; [11]): 0
- Giant foxtail plant response rating (giant foxtail; [12]): 2
- Giant foxtail plant response rating (giant foxtail; [1]): 8
- Plant response rating, Giant foxtail (giant foxtail; [13]): 3
- Plant response rating, Giant foxtail (giant foxtail; [3]): 6
- Plant response rating, Giant foxtail (giant foxtail; [4]): 9
- Giant foxtail plant response rating (giant foxtail; [5]): 9
- Giant foxtail plant response rating (giant foxtail; [6]): 5
- Giant foxtail plant response rating (giant foxtail; [7]): 8

Structure (SMILES): CC(C)N(C(=O)n1oc(=O)n(-c2ccc(OC(F)(F)F)cc2)c1=O)C1=CCOCC1 [Compound 13]
- Crabgrass plant response rating (crabgrass; [1]): 5
- Crabgrass plant response rating (crabgrass; [2]): 9
- Plant response rating, Crabgrass (crabgrass; [3]): 2
- Plant response rating, Crabgrass (crabgrass; [4]): 5
- Crabgrass plant response rating (crabgrass; [5]): 5
- Crabgrass plant response rating (crabgrass; [6]): 1
- Crabgrass plant response rating (crabgrass; [7]): 9
- Plant response rating, Crabgrass (crabgrass; [8]): 8
- Wheat plant response rating (wheat; [1]): 0
- Wheat plant response rating (wheat; [2]): 0
- Plant response rating, Wheat (wheat; [3]): 0
- Plant response rating, Wheat (wheat; [4]): 0
- Wheat plant response rating (wheat; [5]): 0
- Wheat plant response rating (wheat; [6]): 0
- Plant response rating, Wheat (wheat; [8]): 0
- Ducksalad plant response rating (duck salad; [2]): 0
- Ducksalad plant response rating (duck salad; [9]): 0
- Ducksalad plant response rating (duck salad; [10]): 0
- Ducksalad plant response rating (duck salad; [11]): 0
- Giant foxtail plant response rating (giant foxtail; [1]): 2
- Giant foxtail plant response rating (giant foxtail; [2]): 7
- Plant response rating, Giant foxtail (giant foxtail; [3]): 3
- Plant response rating, Giant foxtail (giant foxtail; [4]): 8
- Giant foxtail plant response rating (giant foxtail; [5]): 8
- Giant foxtail plant response rating (giant foxtail; [6]): 0
- Giant foxtail plant response rating (giant foxtail; [7]): 7
- Plant response rating, Giant foxtail (giant foxtail; [8]): 8

Structure (SMILES): CCN(C(=O)n1oc(=O)n(-c2ccc(C)cc2C)c1=O)C1CCCCC1 [Compound 26]
- Crabgrass plant response rating (crabgrass; [12]): 0
- Crabgrass plant response rating (crabgrass; [1]): 1
- Crabgrass plant response rating (crabgrass; [14]): 0
- Plant response rating, Crabgrass (crabgrass; [13]): 0
- Plant response rating, Crabgrass (crabgrass; [3]): 0
- Plant response rating, Crabgrass (crabgrass; [4]): 3
- Crabgrass plant response rating (crabgrass; [15]): 0
- Crabgrass plant response rating (crabgrass; [6]): 0
- Wheat plant response rating (wheat; [12]): 0
- Wheat plant response rating (wheat; [1]): 0
- Wheat plant response rating (wheat; [14]): 0
- Plant response rating, Wheat (wheat; [13]): 0
- Plant response rating, Wheat (wheat; [3]): 0
- Plant response rating, Wheat (wheat; [4]): 0
- Wheat plant response rating (wheat; [6]): 0
- Ducksalad plant response rating (duck salad; [12]): 0
- Ducksalad plant response rating (duck salad; [9]): 0
- Ducksalad plant response rating (duck salad; [10]): 0
- Ducksalad plant response rating (duck salad; [11]): 0
- Giant foxtail plant response rating (giant foxtail; [12]): 0
- Giant foxtail plant response rating (giant foxtail; [1]): 0
- Giant foxtail plant response rating (giant foxtail; [14]): 0
- Plant response rating, Giant foxtail (giant foxtail; [13]): 0
- Plant response rating, Giant foxtail (giant foxtail; [3]): 0
- Plant response rating, Giant foxtail (giant foxtail; [4]): 4
- Giant foxtail plant response rating (giant foxtail; [15]): 0
- Giant foxtail plant response rating (giant foxtail; [6]): 0
